≈ marks a conversion by molar mass, not a printed value. Where two headings read alike, the source gives them in different places.
How the values were obtained:
CHI Log D procedure = type: physicochemical; settings: for CHI Log D: pH 7.4
Solubility in PBS = type: physicochemical
Outline: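 The PBS solution was ultracentrifuged and the supernatant analyzed by HPLC. Its peak area was divided by that of a 50 μM peptide DMSO reference injection and multiplied by 50 uM to give solubility.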

[1] = molecular target: T1, full-length beta-Catenin (Uniprot ID P35222) (Homo sapiens, UniProt P35222); assay: Fluorescence polarization IC50 (beta-catenin / 5FAM-TCF4 10-53 competition); type: binding; settings: fluorescence polarization; read-out: beta-Catenin FP IC50
T1 construct: 10 nM full-length beta-Catenin (Uniprot ID P35222)
T1 sequence (P35222 1-781): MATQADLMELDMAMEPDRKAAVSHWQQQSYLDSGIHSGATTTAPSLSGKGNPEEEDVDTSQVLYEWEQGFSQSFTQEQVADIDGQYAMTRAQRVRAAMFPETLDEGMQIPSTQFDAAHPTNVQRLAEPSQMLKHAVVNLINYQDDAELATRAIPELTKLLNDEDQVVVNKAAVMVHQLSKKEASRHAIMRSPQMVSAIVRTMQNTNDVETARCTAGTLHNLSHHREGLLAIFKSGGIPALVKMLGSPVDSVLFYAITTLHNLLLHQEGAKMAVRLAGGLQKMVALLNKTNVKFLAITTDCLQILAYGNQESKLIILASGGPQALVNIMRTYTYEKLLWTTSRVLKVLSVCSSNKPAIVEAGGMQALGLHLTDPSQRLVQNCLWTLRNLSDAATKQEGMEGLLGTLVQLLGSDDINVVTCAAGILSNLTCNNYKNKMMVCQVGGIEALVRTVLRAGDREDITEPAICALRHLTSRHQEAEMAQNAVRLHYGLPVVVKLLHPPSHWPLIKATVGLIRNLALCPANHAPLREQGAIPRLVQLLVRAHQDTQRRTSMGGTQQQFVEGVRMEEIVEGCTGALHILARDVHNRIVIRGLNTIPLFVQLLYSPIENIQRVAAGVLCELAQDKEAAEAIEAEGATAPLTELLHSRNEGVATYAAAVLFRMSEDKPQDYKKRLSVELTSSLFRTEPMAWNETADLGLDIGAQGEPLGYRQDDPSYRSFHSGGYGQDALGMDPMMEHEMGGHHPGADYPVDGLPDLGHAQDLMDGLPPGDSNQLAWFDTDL

[2] = molecular target: T2, beta-catenin/TCF4 engagement (Homo sapiens, UniProt P35222); assay: Nano-BRET target engagement assay (B-cat-Halo & TCF4-Luc in HEK293 cells); type: cell-based; settings: absolute IC50; read-out: NanoBRET Abs IC50
T2 construct: expressed in transfected cells; host or cells: HEK293
T2 sequence (P35222 1-781): T1 sequence (P35222 1-781)

Structure (SMILES) | CHI Log D (CHI Log D procedure) | Solubility (Solubility in PBS; 15 min) [µM] | Solubility (Solubility in PBS) [µM] | chromatographic logD (CHI Log D procedure; pH 7.4, CHI Log D) | Solubility (Solubility in PBS; Solubility (uM)) [µM] | IC50 [1] [µM] | IC50 [2] [µM]
CC(=O)N1CCC[C@]12CC=CCCCC1(CCCC=CCCCCCC[C@@](C)(C(=O)N[C@@H](Cc3ccccc3)C(=O)N[C@@H](Cc3c[nH]c4ccccc34)C(=O)N[C@@H](CCC(N)=O)C(N)=O)NC(=O)[C@H](C(C)C)NC(=O)C(Cc3cncn3C)NC(=O)[C@H](C)NC(=O)[C@H](C)NC(=O)[C@H](CC(=O)O)NC(=O)[C@H](CC(=O)O)NC1=O)NC(=O)[C@H](C)NC(=O)[C@H](CC(=O)O)NC2=O (single isomer, unassigned) [I-332, Ac-PL3-Asp-Ala-B5-Asp-Asp-Ala-Ala-3meH-Val-S8-Phe-Trp-Gln-NH2] | 2.038 | 40 (≈ 71.4 µg/mL) |  |  |  |  | 
CC(=O)N1CCC[C@]12CC=CCCCC1(CCCC=CCCCCCC[C@@](C)(C(=O)N[C@@H](Cc3ccccc3)C(=O)N[C@@H](Cc3c[nH]c4ccccc34)C(=O)N[C@@H](CCC(N)=O)C(N)=O)NC(=O)[C@H](C(C)C)NC(=O)[C@H](Cc3ccccc3)NC(=O)[C@H](C)NC(=O)[C@H](C)NC(=O)[C@H](Cc3cccc(F)c3)NC(=O)[C@H](CC(=O)O)NC1=O)NC(=O)[C@H](C)NC(=O)[C@H](CC(=O)O)NC2=O (stereo partly drawn) [I-257, Ac-PL3-Asp-Ala-B5-Asp-3FF-Ala-Ala-Phe-Val-S8-Phe-Trp-Gln-NH2] |  |  | 10 (≈ 18.3 µg/mL) | 2.91 |  |  | 
CC(=O)N1CCC[C@]12CC=CCCCC1(CCCC=CCCCOC(=O)N3CC[C@@](C(=O)N[C@@H](Cc4ccccc4Cl)C(=O)N[C@@H](Cc4csc5ccccc45)C(=O)N[C@@H](CCC(N)=O)C(N)=O)(C3)NC(=O)[C@H](Cc3ccccc3C(F)(F)F)NC(=O)[C@H](Cc3ccccc3)NC(=O)[C@H](C)NC(=O)[C@H](C)NC(=O)[C@H](CC(=O)O)NC(=O)[C@H](CC(=O)O)NC1=O)NC(=O)[C@H](CC(C)(C)C)NC(=O)[C@H](CC(=O)O)NC2=O (stereo partly drawn) [I-1367, Ac-PL3-Asp-Npg-B5-Asp-Asp-Ala-Ala-Phe-2F3MeF-PyrS2-2C1F-BztA-Gln-NH2] |  |  | 10 (≈ 20.5 µg/mL) |  |  | 0.031 | 7.8
CC(=O)N1CCC[C@]12CC=CCCCC1(CCCC=CCCCOC(=O)N3CC[C@@](C(=O)N[C@@H](Cc4ccsc4)C(=O)N[C@@H](Cc4csc5ccccc45)C(=O)N[C@H](CO)[C@@H](C)O)(C3)NC(=O)[C@H](Cc3ccccc3C(F)(F)F)NC(=O)[C@H](Cc3ccccc3)NC(=O)[C@H](C)NC(=O)[C@H](C)NC(=O)[C@H](CC(=O)O)NC(=O)[C@H](CC(=O)O)NC1=O)NC(=O)[C@H](CC(C)(C)C)NC(=O)[C@H](CC(=O)O)NC2=O (stereo partly drawn) [I-1370, Ac-PL3-Asp-Npg-B5-Asp-Asp-Ala-Ala-Phe-2F3MeF-PyrS2-3Thi-BztA-Thro1] |  |  | 10 (≈ 19.8 µg/mL) |  |  | 0.018 | 10
CC(=O)N1CCC[C@]12CC=CCCCC1(CCCC=CCCCOC(=O)N3CC[C@@](C(=O)N[C@@H](Cc4ccsc4)C(=O)N[C@@H](Cc4csc5ccccc45)C(=O)N[C@H](CO)[C@@H](C)O)(C3)NC(=O)[C@H](Cc3cccc(C(F)(F)F)c3)NC(=O)[C@H](Cc3ccccc3)NC(=O)[C@H](C)NC(=O)[C@H](C)NC(=O)[C@H](CC(=O)O)NC(=O)[C@H](CC(=O)O)NC1=O)NC(=O)[C@H](CC(C)(C)C)NC(=O)[C@H](CC(=O)O)NC2=O (stereo partly drawn) [I-1371, Ac-PL3-Asp-Npg-B5-Asp-Asp-Ala-Ala-Phe-3F3MeF-PyrS2-3Thi-BztA-Thro1] |  |  | 10 (≈ 19.8 µg/mL) |  |  | 0.022 | 10.9

Other lines, results leading:

CHI Log D (CHI Log D procedure) | Solubility (Solubility in PBS; 15 min) [µM] | Solubility (Solubility in PBS) [µM] | chromatographic logD (CHI Log D procedure; pH 7.4, CHI Log D) | Solubility (Solubility in PBS; Solubility (uM)) [µM] | IC50 [1] [µM] | IC50 [2] [µM] | Structure (SMILES)
2.134 |  | 11 (≈ 20.9 µg/mL) |  |  |  |  | CC(=O)N[C@@H](Cc1ccccc1)C(=O)N[C@@H](CC(=O)O)C(=O)N[C@@H](C)C(=O)N[C@]1(C)CCCCCCC=CCOC(=O)N2CC[C@@](C(=O)N[C@@H](Cc3ccccc3)C(=O)N[C@@H](Cc3c[nH]c4ccccc34)C(=O)N[C@@H](CCC(N)=O)C(N)=O)(C2)NC(=O)[C@H](C(C)C)NC(=O)[C@H](Cc2ccccc2)NC(=O)[C@H](C)NC(=O)[C@H](C)NC(=O)[C@H](Cc2ccc3ccccc3c2)NC(=O)[C@H](CC(=O)O)NC1=O [I-116, Ac-Phe-Asp-Ala-R8-Asp-2NapA-Ala-Ala-Phe-Val-PyrS-Phe-Trp-Gln-NH2]
2.191 |  | 44 (≈ 80.6 µg/mL) |  |  |  |  | CC(=O)N1CCC[C@]12CC=CCCCC1(CCCC=CCCCCCC[C@@](C)(C(=O)N[C@@H](Cc3cccc4ccccc34)C(=O)N[C@@H](Cc3c[nH]c4ccccc34)C(=O)N[C@@H](CCC(N)=O)C(N)=O)NC(=O)[C@H](C(C)C)NC(=O)[C@H](Cc3ccccc3)NC(=O)[C@H](C)NC(=O)[C@H](C)NC(=O)[C@H](CC(=O)O)NC(=O)[C@H](CC(=O)O)NC1=O)NC(=O)[C@H](C)NC(=O)[C@H](CC(=O)O)NC2=O (stereo partly drawn) [I-275, Ac-PL3-Asp-Ala-B5-Asp-Asp-Ala-Ala-Phe-Val-S8-1NapA-Trp-Gln-NH2]
 |  |  |  | 17 (≈ 34.3 µg/mL) | 0.009 | 10.5 | CC(=O)N1CCC[C@]12CC=CCCCC1(CCCC=CCCCOC(=O)N3CC[C@@](C(=O)N[C@@H](Cc4ccsc4)C(=O)N[C@@H](Cc4csc5ccccc45)C(=O)N[C@@H](CCC(N)=O)C(N)=O)(C3)NC(=O)[C@H](Cc3cccc(C(F)(F)F)c3)NC(=O)[C@H](Cc3ccccc3)NC(=O)[C@H](C)NC(=O)[C@H](C)NC(=O)[C@H](CC(=O)O)NC(=O)[C@H](CC(=O)O)NC1=O)NC(=O)[C@H](CC(C)(C)C)NC(=O)[C@H](CC(=O)O)NC2=O (stereo partly drawn) [I-1364, Ac-PL3-Asp-Npg-B5-Asp-Asp-Ala-Ala-Phe-3F3MeF-PyrS2-3Thi-BztA-Gln-NH2]
 |  |  |  | 22 (≈ 44.4 µg/mL) | 0.009 | 9.7 | CC(=O)N1CCC[C@]12CC=CCCCC1(CCCC=CCCCOC(=O)N3CC[C@@](C(=O)N[C@@H](Cc4ccsc4)C(=O)N[C@@H](Cc4csc5ccccc45)C(=O)N[C@@H](CCC(N)=O)C(N)=O)(C3)NC(=O)[C@H](Cc3ccc(C(F)(F)F)cc3)NC(=O)[C@H](Cc3ccccc3)NC(=O)[C@H](C)NC(=O)[C@H](C)NC(=O)[C@H](CC(=O)O)NC(=O)[C@H](CC(=O)O)NC1=O)NC(=O)[C@H](CC(C)(C)C)NC(=O)[C@H](CC(=O)O)NC2=O (stereo partly drawn) [I-1365, Ac-PL3-Asp-Npg-B5-Asp-Asp-Ala-Ala-Phe-4F3MeF-PyrS2-3Thi-BztA-Gln-NH2]
 |  | 10 (≈ 19.8 µg/mL) |  |  | 0.007 | 7.5 | CC(=O)N1CCC[C@]12CC=CCCCC1(CCCC=CCCCOC(=O)N3CC[C@@](C(=O)N[C@@H](Cc4ccccc4Cl)C(=O)N[C@@H](Cc4csc5ccccc45)C(=O)N[C@@H](CCC(N)=O)C(N)=O)(C3)NC(=O)[C@H](Cc3ccccc3)NC(=O)[C@H](Cc3ccccc3)NC(=O)[C@H](C)NC(=O)[C@H](C)NC(=O)[C@H](CC(=O)O)NC(=O)[C@H](CC(=O)O)NC1=O)NC(=O)[C@H](CC(C)(C)C)NC(=O)[C@H](CC(=O)O)NC2=O (stereo partly drawn) [I-1366, Ac-PL3-Asp-Npg-B5-Asp-Asp-Ala-Ala-Phe-Phe-PyrS2-2C1F-BztA-Gln-NH2]
 |  | 10 (≈ 20.5 µg/mL) |  |  | 0.044 | 14.2 | CC(=O)N1CCC[C@]12CC=CCCCC1(CCCC=CCCCOC(=O)N3CC[C@@](C(=O)N[C@@H](Cc4ccccc4Cl)C(=O)N[C@@H](Cc4csc5ccccc45)C(=O)N[C@@H](CCC(N)=O)C(N)=O)(C3)NC(=O)[C@H](Cc3cccc(C(F)(F)F)c3)NC(=O)[C@H](Cc3ccccc3)NC(=O)[C@H](C)NC(=O)[C@H](C)NC(=O)[C@H](CC(=O)O)NC(=O)[C@H](CC(=O)O)NC1=O)NC(=O)[C@H](CC(C)(C)C)NC(=O)[C@H](CC(=O)O)NC2=O (stereo partly drawn) [I-1368, Ac-PL3-Asp-Npg-B5-Asp-Asp-Ala-Ala-Phe-3F3MeF-PyrS2-2C1F-BztA-Gln-NH2]
 |  | 10 (≈ 20.5 µg/mL) |  |  | 0.029 | 9.9 | CC(=O)N1CCC[C@]12CC=CCCCC1(CCCC=CCCCOC(=O)N3CC[C@@](C(=O)N[C@@H](Cc4ccccc4Cl)C(=O)N[C@@H](Cc4csc5ccccc45)C(=O)N[C@@H](CCC(N)=O)C(N)=O)(C3)NC(=O)[C@H](Cc3ccc(C(F)(F)F)cc3)NC(=O)[C@H](Cc3ccccc3)NC(=O)[C@H](C)NC(=O)[C@H](C)NC(=O)[C@H](CC(=O)O)NC(=O)[C@H](CC(=O)O)NC1=O)NC(=O)[C@H](CC(C)(C)C)NC(=O)[C@H](CC(=O)O)NC2=O (stereo partly drawn) [I-1369, Ac-PL3-Asp-Npg-B5-Asp-Asp-Ala-Ala-Phe-4F3MeF-PyrS2-2C1F-BztA-Gln-NH2]
 |  | 10 (≈ 19.8 µg/mL) |  |  | 0.029 | 10.2 | CC(=O)N1CCC[C@]12CC=CCCCC1(CCCC=CCCCOC(=O)N3CC[C@@](C(=O)N[C@@H](Cc4ccsc4)C(=O)N[C@@H](Cc4csc5ccccc45)C(=O)N[C@H](CO)[C@@H](C)O)(C3)NC(=O)[C@H](Cc3ccc(C(F)(F)F)cc3)NC(=O)[C@H](Cc3ccccc3)NC(=O)[C@H](C)NC(=O)[C@H](C)NC(=O)[C@H](CC(=O)O)NC(=O)[C@H](CC(=O)O)NC1=O)NC(=O)[C@H](CC(C)(C)C)NC(=O)[C@H](CC(=O)O)NC2=O (stereo partly drawn) [I-1372, Ac-PL3-Asp-Npg-B5-Asp-Asp-Ala-Ala-Phe-4F3MeF-PyrS2-3Thi-BztA-Thro1]
